Here are results for 25 compounds from patent US9688684B2, “Substituted tetrazolo[1,5-a]pyrazines as ROR-gamma inhibitors” (Merck Patent GmbH, priority 2013, dated 2017).

For test [1], the target named is human RORγ ligand binding domain (GST-hRORγ-LBD) (Homo sapiens (Human), UniProt P51449). Kind of test: TR-FRET assay (biochemical cofactor interaction assay, GST-hRORγ-LBD / TRAP220 peptide). The text has this:
RORγ is an orphan member of the nuclear receptor (NR) family displaying constitutive activity. The activity of nuclear receptors can be modulated by ligand-induced cofactor protein interactions. For example, agonist binding leads to recruitment of coactivator protein, and antagonist binding either blocks coactivator interaction or facilitates the recruitment of corepressors. […] The conformational change induced by ligand binding influences interactions with LXXLL motif peptides.
RORγ (t) is a thymus-specific isoform of RORγ which is widely expressed. It shares the same ligand binding domain (LBD) sequence with RORγ. Thus, a screen using the LBD will yield antagonists targeting both RORγ and RORγt.
In order to identify compounds which block activity of the human nuclear receptor Retinoid-related Orphan Receptor gamma (RORγ) a biochemical cofactor interaction assay based on the TR-FRET principle is performed. […] The ligand-binding domain (LBD) of RORγ is expressed as fusion protein with GST in […] cells using the vector pDEST15. Cells are lysed by lysozyme-treatment and sonication, and the fusion proteins purified over glutathione sepharose (Pharmacia) according to the manufacturers instructions. The strong constitutive interaction is disrupted upon binding of functional antagonists. The strength of the interaction is monitored by TR-FRET between streptavidine APC interacting with the biotinylated peptide and Europium-labelled Anti-GST.
On the technique in general: In TR-FRET formats the signal depends on donor and acceptor labels being close together.

Test [2] deals with RORγ Ligand binding domain (RORγ-LBD, aa 238-497, NP_001001523) (Homo sapiens (Human), UniProt P51449). In words: ROR γ GAI4 Reporter Gene Assay (Mammalian one-hybrid, M1H) in 293T cells. Format: cell-based. The text has this: ROR γ GAI4 Reporter Gene Assay
A Mammalian one-hybrid system is used to perform a cell-based functional transactivation assay for detecting RORγ activity modulators.
The Mammalian-1-Hybrid is derived from the Mammalian-2-Hybrid setup. Whereas in the latter, the binding partners are defined in their role as interaction, transactivation and DNA-binding components, the Mammalian-1-Hybrid makes use of the fact that all mammalian cell types express a set of Nuclear Receptors and their associated cofactors. […] A Gal4 minimal promoter driven luciferase construct (pFR-Luc from Stratagene, containing a synthetic promoter with five tandem repeats of the yeast GAL4 binding sites controlling expression of the Photinus pyralis luciferase gene) is used as reporter. The Gal4-DBD-NR-LBD fusion protein by itself cannot initiate transcription and is dependent on the presence of cofactors present in the cellular system used.
In order to rule out cytotoxic and unspecific transcriptional compound effects a transfection with a firefly luciferase driven by the constitutive CMV promoter is performed in parallel.
After transfection 18 μl complete MEM medium containing 3% charcoal-dextran treated FBS is added as well as 4 μl test compounds (DMSO stocks prediluted in OptiMem (Invitrogen)) followed by incubation for 16-24 h at 37° C., 5% CO2 and 90% rH.
Firefly luciferase activity is measured using the Promega ONE-Glo™ Luciferase Assay System.
For orientation: Reporter assays use an easily measured gene product as a stand-in for the process of interest.

Sequence of human RORγ ligand binding domain (GST-hRORγ-LBD) (P51449 269-508): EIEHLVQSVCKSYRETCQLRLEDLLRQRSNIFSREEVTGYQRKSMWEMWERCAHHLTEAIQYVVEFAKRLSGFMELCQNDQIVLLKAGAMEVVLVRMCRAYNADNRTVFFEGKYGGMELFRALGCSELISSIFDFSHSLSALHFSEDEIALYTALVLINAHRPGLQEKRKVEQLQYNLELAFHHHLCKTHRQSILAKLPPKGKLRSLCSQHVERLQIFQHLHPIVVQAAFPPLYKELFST
Sequence of RORγ Ligand binding domain (RORγ-LBD, aa 238-497, NP_001001523) (P51449 259-518): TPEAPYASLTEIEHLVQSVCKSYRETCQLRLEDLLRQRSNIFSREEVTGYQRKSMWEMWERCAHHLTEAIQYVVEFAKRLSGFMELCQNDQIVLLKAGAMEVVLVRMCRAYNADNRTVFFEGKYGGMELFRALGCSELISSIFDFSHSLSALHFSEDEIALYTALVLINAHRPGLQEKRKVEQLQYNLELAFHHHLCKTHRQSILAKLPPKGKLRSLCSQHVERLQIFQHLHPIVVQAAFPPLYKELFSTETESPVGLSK

In general, IC50 refers to the concentration at which inhibition is half-maximal. Lower therefore signals inhibition by little substance. Take `Fc1ccc(C2c3nnnn3CCN2Cc2cccs2)cc1` (stereo not shown) [Compound 125, 8-(4-Fluoro-phenyl)-7-thiophen-2-ylmethyl-5,6,7,8-tetrahydro-tetrazolo[1,5-a]pyrazine]: the IC50 in test [1] lay in the range of 0.99 to 9.9 µM; in test [2], 9.9 to 40 µM.

Regarding `Cc1cccc(C2c3nnnn3CCN2Cc2ccccc2)c1` (stereo not shown) [Compound 100, 7-Benzyl-8-m-tolyl-5,6,7,8-tetrahydro-tetrazolo[1,5-a]pyrazine], the figures for the IC50 in test [1] and in test [2] were 0.01 to 0.99 µM and 9.9 to 40 µM, respectively. The matching figures for `CC(C)c1nn(-c2ccccc2)cc1C1c2nnnn2CCN1Cc1cccc(F)c1F` (stereo not shown) [Compound 63, 7-(2,3-Difluoro-benzyl)-8-(3-isopropyl-1-phenyl-1H-pyrazol-4-yl)-5,6,7,8-tetrahydro-tetrazolo[1,5-a]pyrazine]: 9.9 to 40 µM and 0.01 to 0.99 µM. In the same order, the values of `CC(C)c1nn(-c2ccccc2)cc1C1c2nnnn2CCN1Cc1cnn2ccccc12` (stereo not shown) [Compound 154, 8-(3-Isopropyl-1-phenyl-1H-pyrazol-4-yl)-7-pyrazolo[1,5-a]pyridin-3-ylmethyl-5,6,7,8-tetrahydro-tetrazolo[1,5-a]pyrazine] are 9.9 to 40 µM and 0.99 to 9.9 µM. As to `Cc1cccc(CN2CCn3nnnc3C2c2ccc(F)cc2)c1` (racemic) [Compound 93, 8-(4-Fluoro-phenyl)-7-(3-methyl-benzyl)-5,6,7,8-tetrahydro-tetrazolo[1,5-a]pyrazine], the half-inhibitory concentration (IC50) in test [1] lay in the range of 0.01 to 0.99 µM; in test [2] it was 9.9 to 40 µM.

For `Cc1ccc(CN2CCn3nnnc3C2c2ccc(OC(C)C)cc2)o1` (stereo not shown) [Compound 142, 8-(4-Isopropoxy-phenyl)-7-(5-methyl-furan-2-ylmethyl)-5,6,7,8-tetrahydro-tetrazolo[1,5-a]pyrazine], the concentration for half-maximal inhibition (IC50) in test [1] and in test [2] was 9.9 to 40 µM each time.

Take `CC(C)c1nn(-c2ccccc2)cc1C1c2nnnn2CCN1C1CCCCC1` (stereo not shown) [Compound 114, 7-Cyclohexyl-8-(3-isopropyl-1-phenyl-1H-pyrazol-4-yl)-5,6,7,8-tetrahydro-tetrazolo[1,5-a]pyrazine]: the IC50 was 0.99 to 9.9 µM in test [1] and 9.9 to 40 µM in test [2]. The matching figures for `Cc1cccc(CN2CCn3nnnc3C2c2ccc3c(c2)OCCO3)c1` (stereo not shown) [Compound 95, 8-(2,3-Dihydro-benzo[1,4]dioxin-6-yl)-7-(3-methyl-benzyl)-5,6,7,8-tetrahydro-tetrazolo[1,5-a]pyrazine]: 0.01 to 0.99 µM and 0.99 to 9.9 µM. In the same order, the values of `Fc1ccccc1C1c2nnnn2CCN1Cc1cccc(Br)c1` (stereo not shown) [Compound 119, 7-(3-Bromo-benzyl)-8-(2-fluoro-phenyl)-5,6,7,8-tetrahydro-tetrazolo[1,5-a]pyrazine] are 0.99 to 9.9 µM and 0.99 to 9.9 µM. The matching figures for `Fc1ccc(CN2CCn3nnnc3C2c2cccc(F)c2)cc1` (single isomer, unassigned) [Compound 91-b, 7-(4-Fluoro-benzyl)-8-(3-fluoro-phenyl)-5,6,7,8-tetrahydro-tetrazolo[1,5-a]pyrazine]: 0.99 to 9.9 µM and 0.99 to 9.9 µM.

For the compound `Fc1ccc(C2c3nnnn3CCN2Cc2ccccc2)cc1` (stereo not shown) [Compound 102, 7-Benzyl-8-(4-fluoro-phenyl)-5,6,7,8-tetrahydro-tetrazolo[1,5-a]pyrazine], the IC50 in test [1] was in the range of 0.01 to 0.99 µM; in test [2], 9.9 to 40 µM. Turning to `Fc1cc(F)cc(C2c3nnnn3CCN2Cc2cccc(Br)c2)c1` (stereo not shown) [Compound 107, 7-(3-Bromo-benzyl)-8-(3,5-difluoro-phenyl)-5,6,7,8-tetrahydro-tetrazolo[1,5-a]pyrazine], the IC50 in test [1] fell in the range of 0.01 to 0.99 µM; in test [2] it was 9.9 to 40 µM. Consider `COc1ccc(OC)c(CN2CCn3nnnc3C2c2cccc(F)c2F)c1` (stereo not shown) [Compound 71, 8-(2,3-Difluoro-phenyl)-7-(2,5-dimethoxy-benzyl)-5,6,7,8-tetrahydro-tetrazolo[1,5-a]pyrazine], for which the IC50 in test [1] and in test [2] was 9.9 to 40 µM in each case. Consider `CC(C)c1nn(-c2ccccc2)cc1CN1CCn2nnnc2C1c1cccs1` (stereo not shown) [Compound 48, 7-(3-Isopropyl-1-phenyl-1H-pyrazol-4-ylmethyl)-8-thiophen-2-yl-5,6,7,8-tetrahydro-tetrazolo[1,5-a]pyrazine], for which the half-inhibitory concentration (IC50) fell in the range of 0.01 to 0.99 µM in test [1] and 9.9 to 40 µM in test [2].

With `Fc1cccc(C2c3nnnn3CCN2Cc2cccs2)c1` (stereo not shown) [Compound 117, 8-(3-Fluoro-phenyl)-7-thiophen-2-ylmethyl-5,6,7,8-tetrahydro-tetrazolo[1,5-a]pyrazine], the IC50 in test [1] was in the range of 0.99 to 9.9 µM; in test [2] it was 9.9 to 40 µM.

Regarding `CC(C)c1nn(-c2ccccc2)cc1C1c2nnnn2CCN1Cc1cccs1` (racemic) [Compound 61, 8-(3-Isopropyl-1-phenyl-1H-pyrazol-4-yl)-7-thiophen-2-ylmethyl-5,6,7,8-tetrahydro-tetrazolo[1,5-a]pyrazine], the IC50 in test [1] and in test [2] was 0.01 to 0.99 µM each time. For `Brc1cccc(CN2CCn3nnnc3C2C2CCCCC2)c1` (stereo not shown) [Compound 65, 7-(3-Bromo-benzyl)-8-cyclohexyl-5,6,7,8-tetrahydro-tetrazolo[1,5-a]pyrazine], the IC50 in test [1] and in test [2] was 9.9 to 40 µM in each case. Regarding `Cc1cccc(CN2CCn3nnnc3C2c2ccc(F)cc2F)c1` (stereo not shown) [Compound 136, 8-(2,4-Difluoro-phenyl)-7-(3-methyl-benzyl)-5,6,7,8-tetrahydro-tetrazolo[1,5-a]pyrazine], the IC50 is 0.99 to 9.9 µM in test [1] and 9.9 to 40 µM in test [2]. `Fc1ccc(CN2CCn3nnnc3C2c2cccc(F)c2)cc1` (racemic) [Compound 91, 7-(4-Fluoro-benzyl)-8-(3-fluoro-phenyl)-5,6,7,8-tetrahydro-tetrazolo[1,5-a]pyrazine]: the values for the half-maximal inhibitory concentration (IC50) in test [1] and in test [2] were 0.99 to 9.9 µM and 0.01 to 0.99 µM, respectively. With `Fc1cc(F)cc(C2c3nnnn3CCN2Cc2ccccc2)c1` (stereo not shown) [Compound 101, 7-Benzyl-8-(3,5-difluoro-phenyl)-5,6,7,8-tetrahydro-tetrazolo[1,5-a]pyrazine], the IC50 was in the range of 0.01 to 0.99 µM in test [1] and 9.9 to 40 µM in test [2]. The matching figures for `COc1ccc(C2c3nnnn3CCN2Cc2ccc(F)cc2)cc1` (stereo not shown) [Compound 146, 7-(4-Fluoro-benzyl)-8-(4-methoxy-phenyl)-5,6,7,8-tetrahydro-tetrazolo[1,5-a]pyrazine]: 9.9 to 40 µM and 0.99 to 9.9 µM.

As for `CC(C)c1nn(-c2ccccc2)cc1CN1CCn2nnnc2C1c1cn(-c2ccccc2)nc1C(C)C` (stereo not shown) [Compound 62, 8-(3-Isopropyl-1-phenyl-1H-pyrazol-4-yl)-7-(3-isopropyl-1-phenyl-1H-pyrazol-4-ylmethyl)-5,6,7,8-tetrahydro-tetrazolo[1,5-a]pyrazine], the IC50 in test [1] is 9.9 to 40 µM. Compound `Brc1cccc(CN2CCn3nnnc3C2c2cccc(Br)c2)c1` (stereo not shown) [Compound 6, 7-(3-Bromo-benzyl)-8-(3-bromo-phenyl)-5,6,7,8-tetrahydro-tetrazolo[1,5-a]pyrazine] had an IC50 in test [1] of 9.9 to 40 µM. `CC(C)c1nn(-c2ccccc2)cc1CN1CCn2nnnc2C1c1ccc2c(c1)OCO2` (stereo not shown) [Compound 29, 8-Benzo[1,3]dioxol-5-yl-7-(3-isopropyl-1-phenyl-1H-pyrazol-4-ylmethyl)-5,6,7,8-tetrahydro-tetrazolo[1,5-a]pyrazine]: the 50% inhibitory concentration (IC50) in test [1] was in the range of 9.9 to 40 µM. Take “7-Benzyl-8-(4-ethyl-phenyl-1H-pyrazol-4-yl)-5,6,7,8-tetrahydro-tetrazolo[1,5-a]pyrazine [Compound 152]”: the half-maximal inhibitory concentration (IC50) in test [1] lay in the range of 9.9 to 40 µM.
